The nature of assay [1]: Inhibition of HCV recombinant NS5B Cdelta21 RdRp expressed in Escherichia coli assessed as [3H]GTP incorporation after 3 hrs by scintillation proximity assay-based RNA polymerase assay. Further details: species or system Hepacivirus hominis. Background: Scintillation proximity formats need no separation of bound from free tracer.
The subject of another assay is Hepatitis C virus. In words: Antiviral activity against HCV infected in human hepatoma cells by RNA replicon assay. It is filed as functional, organism-based. The settings on record: Hepacivirus hominis. (In general: A replicon is a self-replicating genome or part of one, used to study replication in cells.)

Active and inactive are the calls of the source. No cut-off for these calls is given here.

The IC50 is the point on the concentration scale where inhibition reaches its midpoint. In the case of `O=C(NO)c1cnn2c(C3CCCCC3)c(-c3ccc(OCc4ccccc4)cc3)cnc12`, in assay [1] (read-out: IC50), the IC50 was 1900 nM.

In the case of `c1ccc(-c2ccc(-c3cnc4c(-c5nnn[nH]5)cnn4c3C3CCCCC3)cc2)cc1`, in assay [1] (read-out: IC50), the IC50 came out at 2800 nM.

For the molecule `O=C(N[C@@H](Cc1c[nH]c2ccc(O)cc12)C(=O)O)c1cnn2c(C3CCCCC3)c(-c3ccc(F)cc3)cnc12`, the IC50 in assay [1] (read-out: IC50) turned out to be 11 nM.

With `O=S1(=O)CCC(c2c(-c3ccc(OCc4ccccc4)cc3)cnc3c(-c4nnn[nH]4)cnn23)CC1`, in assay [1], the IC50 result is reported as “Not Active”.

For `O=C(N[C@@H](Cc1ccccc1)C(=O)O)c1cnn2c(C3CCCCC3)c(-c3ccc(F)cc3)cnc12`, in assay [1] (read-out: IC50), the IC50 came out at 2000 nM.

As to `COc1cccc(COc2ccc(-c3cnc4c(-c5nnn[nH]5)cnn4c3C3CCCCC3)cc2)c1`, in assay [1] (read-out: IC50), the IC50 worked out at 600 nM.

As for `c1ccc(COc2ccc(-c3cnc4c(-c5nnn[nH]5)cnn4c3C3CC3)cc2)cc1`, the IC50 entry in assay [1] was “Not Active”.

As to `c1ccc(COc2ccc(-c3cnc4c(-c5ncn[nH]5)cnn4c3C3CCCCC3)cc2)cc1`, the IC50 in assay [1] (read-out: IC50) amounted to 5700 nM.

On to `Cn1nnnc1-c1cnn2c(C3CCCCC3)c(-c3ccc(OCc4ccccc4)cc3)cnc12`, for which the IC50 in assay [1] (read-out: IC50) came out at 50000 nM.

Turning to `O=C(N[C@@H](Cc1ccc(O)cc1)C(=O)O)c1cnn2c(C3CCCCC3)c(-c3ccc(F)cc3)cnc12`, the IC50 in assay [1] (read-out: IC50) was found to be 20 nM.

As for `Fc1ccc(-c2cnc3c(-c4nnn[nH]4)cnn3c2C2CCCCC2)cc1F`, the IC50 in assay [1] (read-out: IC50) stood at 700 nM.

As for `c1ccc(COc2ccc(-c3cnc4c(-c5nnn[nH]5)cnn4c3C3CCCCC3)cc2)cc1`, in the assay with Hepatitis C virus, the result was Active. Besides, the IC50 in assay [1] (read-out: IC50) is 450 nM.

With `c1ccc(COc2ccc(-c3cnc4c(-c5nnn[nH]5)cnn4c3-c3ccccc3)cc2)cc1`, the IC50 result in assay [1] was “Not Active”.

Take `O=C(O)c1ccc2c(c1)nc(-c1ccc(OCc3ccccc3)cc1)n2C1CCCCC1`: in assay [1] (read-out: IC50), the IC50 was 530 nM.

Turning to `NC(=O)c1cnn2c(C3CCCCC3)c(-c3ccc(OCc4ccccc4)cc3)cnc12`, the IC50 result in assay [1] is on record as “Not Active”.

`c1ccc(COc2ccc(-c3cnc4c(-c5nnn[nH]5)cnn4c3C3CCOCC3)cc2)cc1`: the IC50 in assay [1] (read-out: IC50) is 12000 nM.

As to `O=C(NS(=O)(=O)c1ccccc1)c1cnn2c(C3CCCCC3)c(-c3ccc(OCc4ccccc4)cc3)cnc12`, in assay [1] (read-out: IC50), the IC50 worked out at 760 nM.

With `CS(=O)(=O)c1cccc(-c2ccc(-c3cnc4c(-c5nnn[nH]5)cnn4c3C3CCCCC3)cc2)c1`, in assay [1] (read-out: IC50), the IC50 was found to be 930 nM.

As for `O=C(O)c1cc2nc(-c3ccc(Cl)cc3)cc(-c3ccc(Oc4ccccc4)cc3)n2n1`, in assay [1] (read-out: IC50), the IC50 worked out at 6000 nM.

As to `O=C(O)c1ccc2c(c1)nc(-c1ccoc1)n2C1CCCCC1`, the IC50 in assay [1] (read-out: IC50) worked out at 1600 nM.

`CC(C)c1c(-c2ccc(OCc3ccccc3)cc2)cnc2c(-c3nnn[nH]3)cnn12`: the IC50 in assay [1] (read-out: IC50) is 8600 nM.

With `c1ccc(Oc2ccc(-c3cnc4c(-c5nnn[nH]5)cnn4c3C3CCCCC3)cc2)cc1`, the 50% inhibitory concentration (IC50) in assay [1] (read-out: IC50) was 400 nM.

In the case of `OCc1cnn2c(C3CCCCC3)c(-c3ccc(OCc4ccccc4)cc3)cnc12`, the IC50 in assay [1] (read-out: IC50) is 12500 nM.

Take `NC(=O)[C@H](Cc1ccc(O)cc1)NC(=O)c1cnn2c(C3CCCCC3)c(-c3ccc(F)cc3)cnc12`: in assay [1] (read-out: IC50), the IC50 is 24 nM.

Consider `O=C(O)c1cnn2c(C3CCCCC3)c(-c3ccc(F)cc3)cnc12`, for which the result with Hepatitis C virus was Active. For the same molecule, the IC50 in assay [1] (read-out: IC50) came out at 930 nM.

Take `CC(C)C[C@H](NC(=O)c1cnn2c(C3CCCCC3)c(-c3ccc(F)cc3)cnc12)C(=O)O`: the IC50 in assay [1] (read-out: IC50) came out at 290 nM.

As for `COc1cccc(Oc2ccc(-c3cnc4c(-c5nnn[nH]5)cnn4c3C3CCCCC3)cc2)c1`, the IC50 in assay [1] (read-out: IC50) came out at 400 nM.

On to `FC(F)(F)c1cccc(COc2ccc(-c3cnc4c(-c5nnn[nH]5)cnn4c3C3CCCCC3)cc2)c1`, for which the IC50 in assay [1] (read-out: IC50) came to 400 nM.

On to `c1cc(-c2cnc3c(-c4nnn[nH]4)cnn3c2C2CCCCC2)ccc1OC1CCCCC1`, for which the IC50 in assay [1] (read-out: IC50) was found to be 400 nM.

Regarding `O=C(N[C@@H](Cc1c[nH]c2ccccc12)C(=O)O)c1cnn2c(C3CCCCC3)c(-c3ccc(F)cc3)cnc12`, the IC50 in assay [1] (read-out: IC50) stood at 20 nM.

For the molecule `CS(=O)(=O)NC(=O)c1cnn2c(C3CCCCC3)c(-c3ccc(OCc4ccccc4)cc3)cnc12`, the IC50 in assay [1] (read-out: IC50) was determined as 1600 nM.

For `O=C(Nc1nnn[nH]1)c1cnn2c(C3CCCCC3)c(-c3ccc(OCc4ccccc4)cc3)cnc12`, the IC50 in assay [1] (read-out: IC50) was found to be 670 nM.

Take `NC(=O)[C@H](Cc1c[nH]c2ccccc12)NC(=O)c1cnn2c(C3CCCCC3)c(-c3ccc(OCc4ccccc4)cc3)cnc12`: in assay [1] (read-out: IC50), the IC50 turned out to be 90 nM.

Regarding `O=C(O)c1cnn2c(C3CCCCC3)c(-c3ccc(OCc4ccccc4)cc3)cnc12`, in the assay on Hepatitis C virus, the outcome was Active. Besides, in assay [1] (read-out: IC50), the IC50 came to 590 nM.

On to `COC(=O)c1cccc(COc2ccc(-c3cnc4c(-c5nnn[nH]5)cnn4c3C3CCCCC3)cc2)c1`, for which, in assay [1] (read-out: IC50), the IC50 stood at 220 nM.

For the molecule `NCCCC[C@H](NC(=O)c1cnn2c(C3CCCCC3)c(-c3ccc(F)cc3)cnc12)C(=O)O`, in assay [1] (read-out: IC50), the IC50 is 480 nM.

With `COC(=O)c1ccc(COc2ccc(-c3cnc4c(-c5nnn[nH]5)cnn4c3C3CCCCC3)cc2)cc1`, the IC50 in assay [1] (read-out: IC50) was 190 nM.

For the molecule `O=C(O)c1ccc(COc2ccc(-c3cnc4c(-c5nnn[nH]5)cnn4c3C3CCCCC3)cc2)cc1`, in assay [1] (read-out: IC50), the IC50 was found to be 42 nM.

As for `CC(C)CCc1c(-c2ccc(OCc3ccccc3)cc2)cnc2c(-c3nnn[nH]3)cnn12`, the IC50 in assay [1] (read-out: IC50) turned out to be 4600 nM.

Take `c1cc(COc2ccc(-c3cnc4c(-c5nnn[nH]5)cnn4c3C3CCCCC3)cc2)ccn1`: the IC50 in assay [1] (read-out: IC50) turned out to be 710 nM.

For the molecule `O=C(N[C@H](Cc1ccc(O)cc1)C(=O)O)c1cnn2c(C3CCCCC3)c(-c3ccc(F)cc3)cnc12`, the IC50 in assay [1] (read-out: IC50) worked out at 960 nM.

Regarding `O=C(N[C@H](Cc1c[nH]c2ccccc12)C(=O)O)c1cnn2c(C3CCCCC3)c(-c3ccc(F)cc3)cnc12`, the IC50 in assay [1] (read-out: IC50) is 450 nM.

Turning to `c1ccc(COc2ccc(-c3cnc4c(-c5nnn[nH]5)cnn4c3C3CCSCC3)cc2)cc1`, the IC50 in assay [1] (read-out: IC50) is 3400 nM.

Regarding `CS(=O)(=O)c1cccc(Oc2ccc(-c3cnc4c(-c5nnn[nH]5)cnn4c3C3CCCCC3)cc2)c1`, the IC50 in assay [1] (read-out: IC50) is 200 nM.

In the case of `Cc1c(-c2ccc(OCc3ccccc3)cc2)cnc2c(-c3nnn[nH]3)cnn12`, in assay [1] (read-out: IC50), the IC50 is 12500 nM.

As for `CC(C)Cc1c(-c2ccc(OCc3ccccc3)cc2)cnc2c(-c3nnn[nH]3)cnn12`, the IC50 in assay [1] (read-out: IC50) is 6000 nM.
